# Experimental data: patent US9969746B2, “Opioid compounds and their uses” (THE UNIVERSITY OF BATH, priority 2013, dated 2018)
# Legend:
# [1] = target: T1, NOP (Homo sapiens, UniProt P41146); assay: Binding affinity to human NOP receptor transfected into CHO cells ([3H]N/OFQ)
# T1 construct: expressed in transfected cells; host or cells: CHO cells (membranes)
# [2] = target: T2, MOP (Homo sapiens, UniProt P35372); assay: biochemical; type: binding; details: [3H]DAMGO, membranes of CHO cells with human receptor
# T2 construct: expressed in transfected cells; host or cells: CHO cells (membranes)
# T2 sequence (P35372 whole entry): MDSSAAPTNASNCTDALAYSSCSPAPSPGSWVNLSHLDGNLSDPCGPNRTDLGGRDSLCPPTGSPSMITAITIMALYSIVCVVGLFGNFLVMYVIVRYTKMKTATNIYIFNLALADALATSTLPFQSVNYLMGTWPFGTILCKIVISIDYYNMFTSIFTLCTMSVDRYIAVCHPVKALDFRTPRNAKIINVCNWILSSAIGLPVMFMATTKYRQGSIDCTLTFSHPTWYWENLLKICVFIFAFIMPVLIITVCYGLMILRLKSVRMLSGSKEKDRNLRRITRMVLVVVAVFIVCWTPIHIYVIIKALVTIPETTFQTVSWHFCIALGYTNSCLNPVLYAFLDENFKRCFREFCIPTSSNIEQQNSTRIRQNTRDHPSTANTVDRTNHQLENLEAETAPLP
# [3] = target: T3, KOP (Homo sapiens, UniProt P41145); assay: biochemical; type: binding; details: [3H]U69593, membranes of CHO cells with human receptor
# T3 construct: expressed in transfected cells; host or cells: CHO cells (membranes)
# T3 sequence (P41145 whole entry): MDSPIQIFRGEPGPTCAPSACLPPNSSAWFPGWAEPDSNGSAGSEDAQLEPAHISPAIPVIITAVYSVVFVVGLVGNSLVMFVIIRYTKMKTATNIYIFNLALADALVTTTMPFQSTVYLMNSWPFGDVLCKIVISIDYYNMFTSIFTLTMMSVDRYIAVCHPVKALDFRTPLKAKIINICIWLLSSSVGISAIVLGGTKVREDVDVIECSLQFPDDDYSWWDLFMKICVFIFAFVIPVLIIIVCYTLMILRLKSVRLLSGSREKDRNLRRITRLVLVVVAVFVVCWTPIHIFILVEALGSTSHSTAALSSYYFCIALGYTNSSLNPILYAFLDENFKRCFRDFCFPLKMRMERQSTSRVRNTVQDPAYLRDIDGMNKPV
# [4] = target: T2, MOP; assay: [35S]GTPγS binding, MOP; type: biochemical; details: 1 h; read-out: % stim MOP
# Experimental: (§1) [^35S]GTPγS binding was conducted basically as described by Traynor and Nahorski (Traynor et al., 1995). Cells were scraped from tissue culture dishes into 20 mM Hepes, 1 mM EDTA, then centrifuged at 500×g for 10 min. Cells were resuspended in this buffer and homogenized using a Polytron Homogenizer. The homogenate was centrifuged at 27,000×g for 15 min, and the pellet re suspended in Buffer A, containing: 20 mM Hepes, 10 mM MgCl2, 100 mM NaCl, pH 7.4. The suspension was re centrifuged at 27,000×g and suspended once more in Buffer A. For the binding assay, membranes (8-15 μg protein) were incubated with [^35S]GTPγS (50 pM), GDP (10 μM), and the appropriate compound, in a total volume of 1.0 ml, for 60 min at 25′C. Samples were filtered over glass fiber filters and counted as described for the binding assays. Statistical analysis was conducted using the program Prism®.
# [5] = target: T1, NOP; assay: [35S]GTPγS binding, NOP; type: biochemical; details: 1 h; read-out: % stim NOP
# Experimental: as §1
# [6] = target: T4, KOPr (Homo sapiens, UniProt P41145); assay: [35S]GTPγS binding, KOPr; type: biochemical
# T4 construct: expressed in transfected cells
# T4 sequence (P41145 whole entry): as above
# Experimental: as §1
# [7] = test system: carrageenan-induced thermal hyperalgesia; assay: Carrageenan-induced thermal hyperalgesia (paw withdrawal latency); type: in vivo
# Experimental: Compound 11 was tested for its effect on carrageenan-induced thermal hyperalgesia measured by paw withdrawal latency (FIG. 1a) and anti-hyperalgesic effect (FIG. 1b).
# [8] = test system: rhesus monkeys; assay: Antinociception against acute noxious stimulus (50° C. water); type: in vivo
# Description: (§2) These findings illustrate the safe and favorable profile of 11.
# [9] = test system: rhesus monkeys; assay: Physiological functions of monkeys (respiration, heart rate, blood pressure); type: in vivo; details: 0.01 mg/kg s.c.
# Description: as §2
# [10] = test system: rhesus monkeys; assay: Operant responding assay (self-administration); type: in vivo
# Description: as §2
# [11] = test system: rhesus monkeys; assay: Scratching responses and sedation after intrathecal administration; type: in vivo; details: intrathecal 3 μg
# Description: as §2
# T1 sequence (P41146 whole entry): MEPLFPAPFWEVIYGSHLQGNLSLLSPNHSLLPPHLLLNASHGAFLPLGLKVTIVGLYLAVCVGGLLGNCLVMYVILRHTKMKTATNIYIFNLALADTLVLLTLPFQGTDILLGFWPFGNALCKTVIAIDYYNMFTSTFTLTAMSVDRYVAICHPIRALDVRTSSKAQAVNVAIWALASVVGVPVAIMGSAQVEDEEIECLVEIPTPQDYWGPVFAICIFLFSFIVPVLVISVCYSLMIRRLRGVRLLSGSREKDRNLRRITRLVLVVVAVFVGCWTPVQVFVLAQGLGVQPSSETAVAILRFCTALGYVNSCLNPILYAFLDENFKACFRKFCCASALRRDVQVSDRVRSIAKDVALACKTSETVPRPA
SMILES,Ki [1] [nM],Ki [2] [nM],Ki [3] [nM],Emax [4] [%],Emax [5] [%],stimulation of the KOPr [6],other results
"Cc1ccc(CCC(=O)O[C@@]23CCC(=O)[C@@H]4Oc5c(O)ccc6c5[C@@]42CCN(CC2CC2)C3C6)cc1 [Compound 18, 14β-(4′-methylphenylpropanoyl)-17-cyclopropylmethyl-7,8-dihydronoroxymorphinone]",35.8 ± 1.6,0.78 ± 0.22,1.06 ± 0.4,25,63,–,–
"O=C(Cc1ccccc1Cl)O[C@@]12CCC(=O)[C@@H]3Oc4c(O)ccc5c4[C@@]31CCN(CC1CC1)C2C5 [Compound 10, 14β-(2′-chlorophenylacetyl)-17-cyclopropylmethyl-7,8-dihydronoroxymorphinone]",32.6 ± 2.3,4.66 ± 1.8,1.34 ± 0.5,39,50,–,–
Cc1cccc(CC(=O)O[C@@]23CCC(=O)[C@@H]4Oc5c(O)ccc6c5[C@@]42CCN(CC2CC2)C3C6)c1 [Compound 4],49.9 ± 3.5,1.91 ± 0.51,2.8 ± 0.91,40,59,–,–
"O=C(Cc1ccc(Cl)cc1)O[C@@]12CCC(=O)[C@@H]3Oc4c(O)ccc5c4[C@@]31CCN(CC1CC1)C2C5 [Compound 9, 14β-(4′-chlorophenylacetyl)-17-cyclopropylmethyl-7,8-dihydronoroxymorphinone]",51.3 ± 14,1.78 ± 0.03,3.95 ± 0.59,8.2,19,–,–
"COc1ccc(CCC(=O)O[C@@]23CCC(=O)[C@@H]4Oc5c(O)ccc6c5[C@@]42CCN(CC2CC2)C3C6)cc1 [Compound 12, 14β-(4′-methoxyphenylpropanoyl)-17-cyclopropylmethyl-7,8-dihydronoroxymorphinone]",766 ± 177,0.91 ± 0.12,1.96 ± 0.04,–,52,no stimulation,–
"Cc1ccccc1CC(=O)O[C@@]12CCC(=O)[C@@H]3Oc4c(O)ccc5c4[C@@]31CCN(CC1CC1)C2C5 [Compound 3, 14β-(2′-methylphenylacetyl)-17-cyclopropylmethyl-7,8-dihydronoroxymorphinone]",44.1 ± 3.1,3.59 ± 0.86,1.69 ± 1.2,42,21,–,–
"COc1cccc(CCC(=O)O[C@@]23CCC(=O)[C@@H]4Oc5c(O)ccc6c5[C@@]42CCN(CC2CC2)C3C6)c1 [Compound 13, 14β-(3′-methoxyphenylpropanoyl)-17-cyclopropylmethyl-78-dihydronoroxymorphinone]",154 ± 11.5,1.14 ± 0.18,1.24 ± 0.15,–,46,no stimulation,–
"COc1ccccc1CCC(=O)O[C@@]12CCC(=O)[C@@H]3Oc4c(O)ccc5c4[C@@]31CCN(CC1CC1)C2C5 [Compound 14, 14β-(2′-methoxyphenylpropanoyl)-17-cyclopropylmethyl-7,8-dihydronoroxymorphinone]",120 ± 20.5,1.67 ± 0.42,1.24 ± 0.11,–,56,no stimulation,–
"O=C(CCc1cccc(Cl)c1)O[C@@]12CCC(=O)[C@@H]3Oc4c(O)ccc5c4[C@@]31CCN(CC1CC1)C2C5 [Compound 17, 14β-(3′-chlorophenylpropanoyl)-17-cyclopropylmethyl-7,8-dihydronoroxymorphinone]",27 ± 4.9,0.39 ± 0.07,0.74 ± 0.05,26,22,no stimulation,–
"COc1cccc(CC(=O)O[C@@]23CCC(=O)[C@@H]4Oc5c(O)ccc6c5[C@@]42CCN(CC2CC2)C3C6)c1 [Compound 5, 14β-(3′-methoxyphenylacetyl)-17-cyclopropylmethyl-7,8-dihydronoroxymorphinone]",50.1 ± 2.7,1.1 ± 0.08,1.44 ± 0.33,11,36,–,–
"O=C(Cc1ccccc1F)O[C@@]12CCC(=O)[C@@H]3Oc4c(O)ccc5c4[C@@]31CCN(CC1CC1)C2C5 [Compound 8, 14β-(2′-fluorophenylacetyl)-17-cyclopropylmethyl-7,8-dihydronoroxymorphinone]",69.7 ± 2.4,2.59 ± 1.1,4.55 ± 0.7,28,15,–,–
"Cc1ccc(CC(=O)O[C@@]23CCC(=O)[C@@H]4Oc5c(O)ccc6c5[C@@]42CCN(CC2CC2)C3C6)cc1 [Compound 2, 14β-(4′-methylphenylacetyl)-17-cyclopropylmethyl-7,8-dihydronoroxymorphinone]",36.3 ± 4.2,1.87 ± 0.09,1.56 ± 0.28,35,22,–,–
"Cc1ccccc1CCC(=O)O[C@@]12CCC(=O)[C@@H]3Oc4c(O)ccc5c4[C@@]31CCN(CC1CC1)C2C5 [Compound 19, 14β-(2′-methylphenylpropanoyl)-17-cyclopropylmethyl-7,8-dihydronoroxymorphinone]",12.1 ± 2.7,0.56 ± 0.11,0.64 ± 0.1,48,33,–,–
"O=C(Cc1ccccc1)O[C@@]12CCC(=O)[C@@H]3Oc4c(O)ccc5c4[C@@]31CCN(CC1CC1)C2C5 [Compound 1, 14β-phenylacetyl-17-cyclopropylmethyl-7,8-dihydronoroxmorphinone]",127 ± 17,0.86 ± 0.18,1.14 ± 0.46,32,28,–,–
"O=C(Cc1ccc2c(c1)OCO2)O[C@@]12CCC(=O)[C@@H]3Oc4c(O)ccc5c4[C@@]31CCN(CC1CC1)C2C5 [Compound 6, 14β-(3′,4′-dioxymethylenephenylacetyl)-7-cyclopropylmethyl-7,8-dihydronoroxymorphinone]",94.3 ± 28,0.99 ± 0.35,1.2 ± 0.42,12,44,–,–
"O=C(CCc1ccccc1)O[C@@]12CCC(=O)[C@@H]3Oc4c(O)ccc5c4[C@@]31CCN(CC1CC1)C2C5 [Compound 11, 14β-Phenylpropanoyl-17-cyclopropylmethyl-7,8-dihydronoroxymorphinone]",14.8 ± 0.94,0.86 ± 0.23,10.5 ± 0.17,18,34,no stimulation,"reversal of 11-induced reversal of thermal hyperalgesia by pretreatment with NOP receptor antagonist J113397 ([7]; J113397 pretreatment): partially reverse; effect on carrageenan-induced thermal hyperalgesia (paw withdrawal latency, anti-hyperalgesic effect) ([7]; intrathecal): efficacious and long acting; reversal of 11-induced reversal of thermal hyperalgesia by pretreatment with MOP receptor antagonist naltrexone ([7]; naltrexone pretreatment): partially reverse; antinociceptive effect ([8]; 0.01 mg/kg s.c., rhesus monkeys): full antinociceptive effects; antinociceptive effect ([8]; intrathecal 3 μg, monkeys): full antinociceptive effects; duration of full antinociceptive effects ([8]; intrathecal 3 μg, monkeys): 24 h; duration of antinociception ([8]; s.c. 0.001-0.01 mg/kg, rhesus monkeys): ~24 h; antinociception against acute noxious stimulus (50° C. water) ([8]; s.c. 0.001-0.01 mg/kg, rhesus monkeys, pilot experiments): dose-dependently produced long lasting antinociception; bradycardia and hypotension [9]: no bradycardia and hypotension; respiratory depression [9]: no respiratory depression; self-administration (abuse liability) [10]: did not self-administer; scratching responses [11]: without eliciting scratching responses; signs of sedation ([11]; during test period): did not show any signs of sedation"
"O=C(CCc1ccc(Cl)cc1)O[C@@]12CCC(=O)[C@@H]3Oc4c(O)ccc5c4[C@@]31CCN(CC1CC1)C2C5 [Compound 16, 14β-(4′-chlorophenylpropanoyl)-17-cyclopropylmethyl-7,8-dihydronoroxymorphinone]",45.2 ± 17.5,0.54 ± 0.11,1.34 ± 0.12,21,41,no stimulation,–
"Cc1cccc(CCC(=O)O[C@@]23CCC(=O)[C@@H]4Oc5c(O)ccc6c5[C@@]42CCN(CC2CC2)C3C6)c1 [Compound 15, 14β-(3′-methylphenylpropanoyl)-17-cyclopropylmethyl-7,8-dihydronoroxymorphinone]",37.7 ± 2.6,0.91 ± 0.1,1.56 ± 0.2,23,–,–,–
"COc1ccccc1CC(=O)O[C@@]12CCC(=O)[C@@H]3Oc4c(O)ccc5c4[C@@]31CCN(CC1CC1)C2C5 [Compound 7, 14β-(2′-methoxyphenylacetyl)-17-cyclopropylmethyl-7,8-dihydronoroxmorphinone]",62.3 ± 4.9,3.77 ± 0.9,3.52 ± 0.9,37,41,–,–
